Measured values taken from US20090311234A1, “USE OF BETA-LACTAMASE” (priority 2006, published 2009).

Test: Elimination of jejunal piperacillin during parenteral piperacillin/tazobactam therapy, canine model
Type: in vivo, beagle dogs
Details: i.v. 100 mg piperacillin and 12.5 mg tazobactam per kg; experiment 1; compared with ampicillin or amoxicillin
Description: Beagle dogs were treated with a combination of piperacillin and tazobactam without and with simultaneous beta-lactamase therapy. The experiments were performed essentially as those described in Examples 1 and 2, except that a single dose of the piperacillin/tazobactam combination contained 100 mg of piperacillin and 12.5 mg of tazobactam per kg of body weight, and the HPLC analysis method was elaborated to be suitable for analysis of piperacillin (the limit of quantification was 10 micrograms per gram of jejunal chyme).
Piperacillin values in experiment 1 represent jejunal piperacillin concentrations achieved after two separate administrations of piperacillin/tazobactam at a dosing interval of 6 hours without beta-lactamase treatment. Beagle dogs were treated with a piperacillin/tazobactam combination with concurrent beta-lactamase therapy in experiment 2.
The experiment was repeated except that the single dose of beta-lactamase pellets contained about 0.3 mg of active beta-lactamase per kg of body weight, and the single dose of the piperacillin/tazobactam combination contained 65.6 mg of piperacillin and 9.4 mg of tazobactam per kg of body weight.

SMILES: CCN1CCN(C(=O)N[C@@H](C(=O)N[C@@H]2C(=O)N3[C@@H]2SC(C)(C)[C@@H]3C(=O)O)c2ccccc2)C(=O)C1=O [piperacillin]
- biliary elimination of piperacillin without beta-lactamase: considerably higher than that of ampicillin or amoxicillin
